One assay addresses T1, KRas^G12V (Homo sapiens, UniProt P01116, G12V).
T1 construct: Biotinylated KRas (corresponding to amino acids 1-169, produced at Accelegan Inc.); biotin (biotinylated); purchased Accelegan Inc
Description: KRas binding assay (TR-FRET tracer displacement), KRas G12V.

Assay [1] deals with KRas-mediated phosphorylation of ERK in H727 cells. Description: Inhibition of KRas-mediated phosphorylation of ERK (Cisbio HTRF pERK), H727 cells. The format is cell-based. As to conditions: Homo sapiens, NCI-H727, H727 cells; HTRF pERK. An outline of the steps: (§1)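 Compound treatment lasts 3 hrs on 6,000 seeded cells, testing 10 doses from a 10 uM top concentration in 3-fold decrements at 0.8% final DMSO. Trametinib at 0.2 uM defines the Min signal. Detection is HTRF on cold-lysed cell extracts.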
A general note: In TR-FRET formats the signal depends on donor and acceptor labels being close together.

The target of another assay is T2, KRas^G12D (Homo sapiens, UniProt P01116, G12D).
T2 construct: Biotinylated KRas (corresponding to amino acids 1-169, produced at Accelegan Inc.); biotin (biotinylated); purchased Accelegan Inc
Description: KRas binding assay (TR-FRET tracer displacement), KRas G12D.

The test system of assay [2] is KRas-mediated phosphorylation of ERK in AsPC-1 cells. Description: Inhibition of KRas-mediated phosphorylation of ERK (Cisbio HTRF pERK), AsPC-1 cells. Conditions: Homo sapiens, ASPC1, AsPC-1 cells; HTRF pERK. The class given is cell-based. The method, boiled down: as §1
A further assay addresses T3, KRas^G12R (Homo sapiens, UniProt P01116, G12R).
T3 construct: Biotinylated KRas (corresponding to amino acids 1-169, produced at Accelegan Inc.); biotin (biotinylated); purchased Accelegan Inc
As to the kind of experiment: KRas binding assay (TR-FRET tracer displacement), KRas G12R.

Each structure is given as a SMILES string. Some results are limits rather than exact numbers.

A word on the IC50: it is the midpoint of a concentration-inhibition curve. Read a low IC50 as inhibition by little substance.

T3 sequence (P01116 1-169 isoform P01116-2 G12R): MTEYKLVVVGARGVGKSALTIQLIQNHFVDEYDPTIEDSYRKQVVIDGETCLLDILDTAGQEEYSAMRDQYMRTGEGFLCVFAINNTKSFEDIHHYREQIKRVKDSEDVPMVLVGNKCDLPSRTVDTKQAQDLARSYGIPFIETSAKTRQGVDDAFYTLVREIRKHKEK
T1 sequence (P01116 1-169 isoform P01116-2 G12V): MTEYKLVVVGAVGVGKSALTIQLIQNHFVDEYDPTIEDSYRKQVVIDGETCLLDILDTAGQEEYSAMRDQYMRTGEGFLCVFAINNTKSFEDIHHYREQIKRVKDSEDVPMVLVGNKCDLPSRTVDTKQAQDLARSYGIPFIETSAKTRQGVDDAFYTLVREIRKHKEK
T2 sequence (P01116 1-169 isoform P01116-2 G12D): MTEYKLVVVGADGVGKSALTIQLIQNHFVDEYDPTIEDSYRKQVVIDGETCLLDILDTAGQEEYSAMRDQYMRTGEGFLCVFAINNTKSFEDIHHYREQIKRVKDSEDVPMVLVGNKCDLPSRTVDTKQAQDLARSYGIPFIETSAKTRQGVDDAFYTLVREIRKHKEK

Turning to `CCc1c(F)ccc2cc(O)cc(-c3ncc4c(N5CCCC(C6CCC(=O)N6)C5)nc(OC[C@@]56CCCN5C[C@H](F)C6)nc4c3F)c12` (stereo partly drawn) [Example 620, 5-(1-(7-(8-ethyl-7-fluoro-3-hydroxynaphthalen-1-yl)-8-fluoro-2-(((2R,7aS)-2-fluorohexahydro-1H-pyrrolizin-7a-yl)methoxy)pyrido[4,3-d]pyrimidin-4-yl)piperidin-3-yl)pyrrolidin-2-one], the IC50 worked out at 248 nM at KRas^G12V; 6800 nM in assay [1]; 495 nM at KRas^G12D; 9680 nM in assay [2]; 376 nM at KRas^G12R.

For `CCc1c(F)ccc2cc(O)cc(-c3ncc4c(N5CC6CN(C7COC7)CC6C5)nc(OC[C@@]56CCCN5C[C@H](F)C6)nc4c3F)c12` (stereo partly drawn) [Example 621, 5-ethyl-6-fluoro-4-(8-fluoro-2-(((2R,7aS)-2-fluorohexahydro-1H-pyrrolizin-7a-yl)methoxy)-4-(5-(oxetan-3-yl)hexahydropyrrolo[3,4-c]pyrrol-2(1H)-yl)pyrido[4,3-d]pyrimidin-7-yl)naphthalen-2-ol], the IC50 on KRas^G12V is 1290 nM; in assay [1], > 10000 nM; at KRas^G12D it was 891 nM; in assay [2], > 10000 nM; at KRas^G12R, 3490 nM.

As to `CCc1c(F)ccc2cc(O)cc(-c3ncc4c(N5C[C@@H]6[C@@H](C(N)=O)NC(=O)[C@@H]6C5)nc(OC[C@@]56CCCN5C[C@H](F)C6)nc4c3F)c12` [Example 622, (3aS,6aR)-5-(7-(8-ethyl-7-fluoro-3-hydroxynaphthalen-1-yl)-8-fluoro-2-(((2R,7aS)-2-fluorotetrahydro-1H-pyrrolizin-7a(5H)-yl)methoxy)pyrido[4,3-d]pyrimidin-4-yl)-3-oxooctahydropyrrolo[3,4-c]pyrrole-1-carboxamide], the 50% inhibitory concentration (IC50) on KRas^G12V is 68 nM; in assay [1], > 10000 nM; on KRas^G12D, 377 nM; in assay [2], > 10000 nM; at KRas^G12R, 139 nM.

Take `CCc1c(F)ccc2cc(O)cc(-c3ncc4c(N5CCC(C)(C)SC(C)(C)C5)nc(OC[C@@]56CCCN5C[C@H](F)C6)nc4c3F)c12` [Example 626, 5-ethyl-6-fluoro-4-(8-fluoro-2-(((2R,7aS)-2-fluorohexahydro-1H-pyrrolizin-7a-yl)methoxy)-4-(2,2,7,7-tetramethyl-1,4-thiazepan-4-yl)pyrido[4,3-d]pyrimidin-7-yl)naphthalen-2-ol]: the IC50 on KRas^G12V is 43000 nM; in assay [1] it was > 10000 nM; at KRas^G12D, 98800 nM; in assay [2], > 10000 nM; on KRas^G12R, 23600 nM.

For `CCc1c(F)ccc2cc(O)cc(-c3ncc4c(N5CCCCC(P(C)(C)=O)C5)nc(OC[C@@]56CCCN5C[C@H](F)C6)nc4c3F)c12` (stereo partly drawn) [Example 627, (1-(7-(8-ethyl-7-fluoro-3-hydroxynaphthalen-1-yl)-8-fluoro-2-(((2R,7aS)-2-fluorohexahydro-1H-pyrrolizin-7a-yl)methoxy)pyrido[4,3-d]pyrimidin-4-yl)azepan-3-yl)dimethylphosphine oxide], the concentration for half-maximal inhibition (IC50) at KRas^G12V was 12 nM; in assay [1], 4560 nM; at KRas^G12D it was 35 nM; in assay [2], > 10000 nM; on KRas^G12R, 27 nM.

Turning to `CCc1c(F)ccc2cc(O)cc(-c3ncc4c(N5CCCC6(CCS6(=O)=O)C5)nc(OC[C@@]56CCCN5C[C@H](F)C6)nc4c3F)c12` (stereo partly drawn) [Example 628, 6-(7-(8-ethyl-7-fluoro-3-hydroxynaphthalen-1-yl)-8-fluoro-2-(((2R,7aS)-2-fluorohexahydro-1H-pyrrolizin-7a-yl)methoxy)pyrido[4,3-d]pyrimidin-4-yl)-1-thia-6-azaspiro[3.5]nonane 1,1-dioxide], the IC50 on KRas^G12V was determined as 107 nM; in assay [1] it was 2810 nM; at KRas^G12D, 78 nM; in assay [2], 3260 nM; on KRas^G12R, 180 nM.

On to `CCc1c(F)ccc2cc(O)cc(-c3ncc4c(N5CCOCC(P(C)(C)=O)C5)nc(OC[C@@]56CCCN5C[C@H](F)C6)nc4c3F)c12` (stereo partly drawn) [Example 629, (4-(7-(8-ethyl-7-fluoro-3-hydroxynaphthalen-1-yl)-8-fluoro-2-(((2R,7aS)-2-fluorohexahydro-1H-pyrrolizin-7a-yl)methoxy)pyrido[4,3-d]pyrimidin-4-yl)-1,4-oxazepan-6-yl)dimethylphosphine oxide], for which the concentration for half-maximal inhibition (IC50) at KRas^G12V was 15 nM; in assay [1] it was > 10000 nM; on KRas^G12D, 65 nM; in assay [2], > 10000 nM; at KRas^G12R it was 37 nM.

As for `CCc1c(F)ccc2cc(O)cc(-c3ncc4c(N[C@@H]5C[C@@H](C)S(=O)(=O)[C@@H](C)C5)nc(OC[C@@]56CCCN5C[C@H](F)C6)nc4c3F)c12` [Example 630, (2R,4s,6S)-4-((7-(8-ethyl-7-fluoro-3-hydroxynaphthalen-1-yl)-8-fluoro-2-(((2R,7aS)-2-fluorohexahydro-1H-pyrrolizin-7a-yl)methoxy)pyrido[4,3-d]pyrimidin-4-yl)amino)-2,6-dimethyltetrahydro-2H-thiopyran 1,1-dioxide], the IC50 is 93 nM on KRas^G12V; 4420 nM in assay [1]; 796 nM on KRas^G12D; > 10000 nM in assay [2]; 34 nM on KRas^G12R.

As to `CCc1c(F)ccc2cc(O)cc(-c3ncc4c(N5CCCC(S(N)(=O)=O)CC5)nc(OC[C@@]56CCCN5C[C@H](F)C6)nc4c3F)c12` (stereo partly drawn) [Example 631, 1-(7-(8-ethyl-7-fluoro-3-hydroxynaphthalen-1-yl)-8-fluoro-2-(((2R,7aS)-2-fluorotetrahydro-1H-pyrrolizin-7a(5H)-yl)methoxy)pyrido[4,3-d]pyrimidin-4-yl)azepane-4-sulfonamide], the half-maximal inhibitory concentration (IC50) came to 12 nM on KRas^G12V; 1600 nM in assay [1]; 9 nM on KRas^G12D; 3130 nM in assay [2]; 33 nM on KRas^G12R.

For the compound `CCc1c(F)ccc2cc(O)cc(-c3ncc4c(NS(=O)(=O)C5CCCNCC5)nc(OC[C@@]56CCCN5C[C@H](F)C6)nc4c3F)c12` (stereo partly drawn) [Example 632, N-(7-(8-ethyl-7-fluoro-3-hydroxynaphthalen-1-yl)-8-fluoro-2-(((2R,7aS)-2-fluorotetrahydro-1H-pyrrolizin-7a(5H)-yl)methoxy)pyrido[4,3-d]pyrimidin-4-yl)azepane-4-sulfonamide], the IC50 at KRas^G12V was 1200 nM; in assay [1], > 10000 nM; at KRas^G12D, 2180 nM; in assay [2], > 10000 nM; on KRas^G12R, 1870 nM.

On to `CCc1c(F)ccc2cc(O)cc(-c3ncc4c(N5Cc6n[nH]c(C(=O)N(C)C)c6C5)nc(OC[C@@]56CCCN5C[C@H](F)C6)nc4c3F)c12` [Example 635, 5-(7-(8-ethyl-7-fluoro-3-hydroxynaphthalen-1-yl)-8-fluoro-2-(((2R,7aS)-2-fluorotetrahydro-1H-pyrrolizin-7a(5H)-yl)methoxy)pyrido[4,3-d]pyrimidin-4-yl)-N,N-dimethyl-2,4,5,6-tetrahydropyrrolo[3,4-c]pyrazole-3-carboxamide], for which the IC50 is 454 nM at KRas^G12V; > 10000 nM in assay [1]; 1640 nM on KRas^G12D; > 10000 nM in assay [2]; 766 nM at KRas^G12R.

`CCc1c(F)ccc2cc(O)cc(-c3ncc4c(N5CCO[C@@H](CS(N)(=O)=O)C5)nc(OC[C@@]56CCCN5C[C@H](F)C6)nc4c3F)c12` [Example 636, 1-((R)-4-(7-(8-ethyl-7-fluoro-3-hydroxynaphthalen-1-yl)-8-fluoro-2-(((2R,7aS)-2-fluorotetrahydro-1H-pyrrolizin-7a(5H)-yl)methoxy)pyrido[4,3-d]pyrimidin-4-yl)morpholin-2-yl)methanesulfonamide]: the IC50 on KRas^G12V is 3 nM; in assay [1] it was 1810 nM; at KRas^G12D, 10 nM; in assay [2], 4190 nM; on KRas^G12R, < 2 nM.

As to `CCc1c(F)ccc2cc(O)cc(-c3ncc4c(N5CCCC(N6C(=O)CCC6=O)C5)nc(OC[C@@]56CCCN5C[C@H](F)C6)nc4c3F)c12` (stereo partly drawn) [Example 638, 1-(1-(7-(8-ethyl-7-fluoro-3-hydroxynaphthalen-1-yl)-8-fluoro-2-(((2R,7aS)-2-fluorotetrahydro-1H-pyrrolizin-7a(5H)-yl)methoxy)pyrido[4,3-d]pyrimidin-4-yl)piperidin-3-yl)pyrrolidine-2,5-dione], the IC50 on KRas^G12V came to 34 nM; in assay [1], 1270 nM; on KRas^G12D, 41 nM; in assay [2], 930 nM; at KRas^G12R, 16 nM.

As to `CCc1c(F)ccc2cc(O)cc(-c3ncc4c(NCc5cn(C(=O)N(C)C)nc5N)nc(OC[C@@]56CCCN5C[C@H](F)C6)nc4c3F)c12` [Example 639, 3-amino-4-(((7-(8-ethyl-7-fluoro-3-hydroxynaphthalen-1-yl)-8-fluoro-2-(((2R,7aS)-2-fluorohexahydro-1H-pyrrolizin-7a-yl)methoxy)pyrido[4,3-d]pyrimidin-4-yl)amino)methyl)-N,N-dimethyl-1H-pyrazole-1-carboxamide], the IC50 at KRas^G12V was 2 nM; in assay [1], 718 nM; at KRas^G12D, 13 nM; in assay [2] it was 1040 nM; on KRas^G12R, 2 nM.

The values above are taken from patent US20260015350A1, “AZAQUINAZOLINE PAN-KRAS INHIBITORS” (Mirati Therapeutics, Inc., priority 2022, published 2026).
